Measurements from patent US20200385371A1 (Propellon Therapeutics Inc., priority 2017, published 2020).

Experiments:
WDR5 [1] = target: T1, WDR5 (Homo sapiens, UniProt P61964); assay: Surface Plasmon Resonance (SPR) assay; format: binding; parameters: Full length WDR5 with an N-terminal His tag and C-terminal AviTag; His tag (N); made in house; host or cells: E. coli; settings: read-out: SPR Kd
Summary of the method: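 Full-length biotinylated WDR5 (N-His, C-AviTag, E. coli) captured (~3000 RU) on streptavidin SA chip; Biacore T200. HBS-EP pH 7.4 plus 5% DMSO running buffer, 40 μl/min.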

WDR5 [2] = target: T1, WDR5; assay: Fluorescence Polarization (FP) binding assay
Summary of the method: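 Buffer was pH 6.5 sodium phosphate (80 mM) with 20 mM KCl and 0.008% Triton X-100; 9-Ala-FAM probe at 20 nM used 0.05 μM WDR5 and 480/540 nm polarization, H3 (1-15) probe at 30 nM used 0.3 μM WDR5 and 485/528 nm. Quadruplicate data were hyperbola-fitted to give Kdisp.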

MV4-11 cells = assay: Cell proliferation assay (ATPlite); format: cell-based; settings: Homo sapiens, 120 h; MV4-11 cells, five days; read-out: GI MV411 EC50
Protocol: MV4-11 cells were seeded into a 96-well plate at 1,000 cells/well in 150 μl medium (Alpha-MEM containing 10% FBS, 100 μg/ml Normocin, and 50 μg/ml Gentamycin, Invitrogen). A HP D300 digital dispenser was used to dose cells with DMSO or test compounds across a 10-point range of concentrations (high dose of 10 μM), and cultures were grown in a humidified 5% CO2 incubator at 37° C. After five days, plates were removed from incubator and equilibrated to room temperature. An equal volume of ATPlite assay reagent was added to each well, and samples were processed according to manufacturer's instructions (Perkin Elmer). Luminescent signal was measured using an Envision plate reader equipped with a US-Luminescence detector.

| SMILES | Kd (WDR5 [1]) | IC50 (WDR5 [2]) | EC50 (MV4-11 cells) |
| --- | --- | --- | --- |
| COc1cnc(N2CCC=C(c3c(F)cc(N4CCN(C)[C@@H](C)C4)c(NC(=O)c4c[nH]c(=O)cc4C(F)F)c3F)C2)nc1 [Example 49, (S)-4-(difluoromethyl)-N-(6-(3,4-dimethylpiperazin-1-yl)-2,4-difluoro-3-(1-(5-methoxypyrimidin-2-yl)-1,2,5,6-tetrahydropyridin-3-yl)phenyl)-6-oxo-1,6-dihydropyridine-3-carboxamide] | 2.68 nM | 21.7 nM | 332 nM |
| COc1cnc(N2CC=C(c3c(F)cc(N4CCN(C)[C@@H](C)C4)c(NC(=O)c4c[nH]c(=O)cc4C(F)F)c3F)C2)nc1 [Example 50, (S)-4-(difluoromethyl)-N-(6-(3,4-dimethylpiperazin-1-yl)-2,4-difluoro-3-(1-(5-methoxypyrimidin-2-yl)-2,5-dihydro-1H-pyrrol-3-yl)phenyl)-6-oxo-1,6-dihydropyridine-3-carboxamide] | 0.8 nM | 11.8 nM | 83.2 nM |
| COc1cnc(N2CC=C(c3c(F)cc(N4CCN(C)[C@@H](C)C4)c(NC(=O)c4c[nH]c(=O)cc4C(F)(F)F)c3F)C2)nc1 [Example 51, (S)—N-(6-(3,4-dimethylpiperazin-1-yl)-2,4-difluoro-3-(1-(5-methoxypyrimidin-2-yl)-2,5-dihydro-1H-pyrrol-3-yl)phenyl)-6-oxo-4-(trifluoromethyl)-1,6-dihydropyridine-3-carboxamide] | 1.1 nM | 17 nM | 111 nM |
| COc1cnc(N2CCC=C(c3c(F)cc(N4CCN(C)[C@@H](C)C4)c(NC(=O)c4c[nH]c(=O)cc4C(F)(F)F)c3F)C2)nc1 [Example 52, (S)—N-(6-(3,4-dimethylpiperazin-1-yl)-2,4-difluoro-3-(1-(5-methoxypyrimidin-2-yl)-1,2,5,6-tetrahydropyridin-3-yl)phenyl)-6-oxo-4-(trifluoromethyl)-1,6-dihydropyridine-3-carboxamide] | 0.46 nM | 20.1 nM | 285 nM |
| COc1cnc(N2CC=C(c3c(F)cc(N4CCN(C)[C@@H](C)C4)c(NC(=O)c4c[nH]c(=O)cc4C(F)(F)F)c3F)CC2)nc1 [Example 53, (S)—N-(6-(3,4-dimethylpiperazin-1-yl)-2,4-difluoro-3-(1-(5-methoxypyrimidin-2-yl)-1,2,3,6-tetrahydropyridin-4-yl)phenyl)-6-oxo-4-(trifluoromethyl)-1,6-dihydropyridine-3-carboxamide] | 1.02 nM | 19.5 nM | 75.8 nM |
| C[C@H]1CN(c2cc(F)c(C3=CCCN(c4ncccn4)C3)c(F)c2NC(=O)c2c[nH]c(=O)cc2C(F)F)CCN1C [Example 54, (S)-4-(difluoromethyl)-N-(6-(3,4-dimethylpiperazin-1-yl)-2,4-difluoro-3-(1-(pyrimidin-2-yl)-1,2,5,6-tetrahydropyridin-3-yl)phenyl)-6-oxo-1,6-dihydropyridine-3-carboxamide] | 3.83 nM | 28.8 nM | 693 nM |
| C[C@@H]1CN(c2ncc(-c3c(F)cc(N4CCN(C)[C@@H](C)C4)c(NC(=O)c4c[nH]c(=O)cc4C(F)(F)F)c3F)cn2)C[C@H](C)O1 [Example 55, N-(3-(2-((2S,6R)-2,6-dimethylmorpholino)pyrimidin-5-yl)-6-((S)-3,4-dimethylpiperazin-1-yl)-2,4-difluorophenyl)-6-oxo-4-(trifluoromethyl)-1,6-dihydropyridine-3-carboxamide] | 0.78 nM | 14.8 nM | 23.8 nM |
| C[C@@H]1CN(c2nccc(-c3c(F)cc(N4CCN(C)[C@@H](C)C4)c(NC(=O)c4cn(C)c(=O)cc4C(F)(F)F)c3F)n2)C[C@H](C)O1 [Example 56, N-(3-(2-((2S,6R)-2,6-dimethylmorpholino)pyrimidin-4-yl)-6-((S)-3,4-dimethylpiperazin-1-yl)-2,4-difluorophenyl)-1-methyl-6-oxo-4-(trifluoromethyl)-1,6-dihydropyridine-3-carboxamide] | 9.79 nM | 36.7 nM | 1320 nM |
| C[C@@H]1CN(c2nccc(-c3c(F)cc(N4CCN(C)[C@@H](C)C4)c(NC(=O)c4cn(C)c(=O)cc4C(F)F)c3F)n2)C[C@H](C)O1 [Example 57, 4-(Difluoromethyl)-N-(3-(2-((2S,6R)-2,6-dimethylmorpholino)pyrimidin-4-yl)-6-((S)-3,4-dimethylpiperazin-1-yl)-2,4-difluorophenyl)-1-methyl-6-oxo-1,6-dihydropyridine-3-carboxamide] | 7.63 nM | 26.8 nM | 367 nM |
| C[C@@H]1CN(c2nccc(-c3c(F)cc(N4CCN(C)[C@@H](C)C4)c(NC(=O)c4c[nH]c(=O)cc4C(F)(F)F)c3F)n2)C[C@H](C)O1 [Example 58, N-(3-(2-((2S,6R)-2,6-dimethylmorpholino)pyrimidin-4-yl)-6-((S)-3,4-dimethylpiperazin-1-yl)-2,4-difluorophenyl)-6-oxo-4-(trifluoromethyl)-1,6-dihydropyridine-3-carboxamide] | 1.25 nM | 15.1 nM | 99.1 nM |
| C[C@@H]1CN(c2nccc(-c3c(F)cc(N4CCN(C)[C@@H](C)C4)c(NC(=O)c4c[nH]c(=O)cc4C(F)F)c3F)n2)C[C@H](C)O1 [Example 59, 4-(Difluoromethyl)-N-(3-(2-((2S,6R)-2,6-dimethylmorpholino)pyrimidin-4-yl)-6-((S)-3,4-dimethylpiperazin-1-yl)-2,4-difluorophenyl)-6-oxo-1,6-dihydropyridine-3-carboxamide] | 1.14 nM | 14.4 nM | 56.6 nM |
| C[C@H]1CN(c2ncc(-c3c(F)cc(N4CCN(C)[C@@H](C)C4)c(NC(=O)c4c[nH]c(=O)cc4C(F)(F)F)c3F)cn2)CCO1 [Example 60, N-(6-((S)-3,4-dimethylpiperazin-1-yl)-2,4-difluoro-3-(2-((S)-2-methylmorpholino)pyrimidin-5-yl)phenyl)-6-oxo-4-(trifluoromethyl)-1,6-dihydropyridine-3-carboxamide] | 1.26 nM | 11 nM | 11.5 nM |
| C[C@@H]1CN(c2cc(F)c(-c3cnc(N4CCC(F)(F)CC4)nc3)c(F)c2NC(=O)c2c[nH]c(=O)cc2C(F)(F)F)C[C@H](C)N1C [Example 61, N-(3-(2-(4,4-difluoropiperidin-1-yl)pyrimidin-5-yl)-2,4-difluoro-6-((3S,5R)-3,4,5-trimethylpiperazin-1-yl)phenyl)-6-oxo-4-(trifluoromethyl)-1,6-dihydropyridine-3-carboxamide] | 1.26 nM | 11.7 nM | 22.9 nM |
| C[C@@H]1CN(c2ccc(-c3c(F)cc(N4C[C@@H](C)N(C)[C@@H](C)C4)c(NC(=O)c4c[nH]c(=O)cc4C(F)(F)F)c3F)cn2)C[C@H](C)O1 [Example 62, N-(3-(6-((2S,6R)-2,6-dimethylmorpholino)pyridin-3-yl)-2,4-difluoro-6-((3S,5R)-3,4,5-trimethylpiperazin-1-yl)phenyl)-6-oxo-4-(trifluoromethyl)-1,6-dihydropyridine-3-carboxamide] | 2.14 nM | 14.4 nM | 24.9 nM |
| C[C@@H]1CN(c2cc(F)c(-c3cnc(N(C)C)c(F)c3)c(F)c2NC(=O)c2c[nH]c(=O)cc2C(F)(F)F)C[C@H](C)N1C [Example 63, N-(3-(6-(dimethylamino)-5-fluoropyridin-3-yl)-2,4-difluoro-6-((3S,5R)-3,4,5-trimethylpiperazin-1-yl)phenyl)-6-oxo-4-(trifluoromethyl)-1,6-dihydropyridine-3-carboxamide] | 1.81 nM | 13 nM | 61.8 nM |
